Assay [1] has as its target T1, Alpha-2C adrenergic receptor (Homo sapiens, UniProt P18825).
T1 sequence (P18825 whole entry): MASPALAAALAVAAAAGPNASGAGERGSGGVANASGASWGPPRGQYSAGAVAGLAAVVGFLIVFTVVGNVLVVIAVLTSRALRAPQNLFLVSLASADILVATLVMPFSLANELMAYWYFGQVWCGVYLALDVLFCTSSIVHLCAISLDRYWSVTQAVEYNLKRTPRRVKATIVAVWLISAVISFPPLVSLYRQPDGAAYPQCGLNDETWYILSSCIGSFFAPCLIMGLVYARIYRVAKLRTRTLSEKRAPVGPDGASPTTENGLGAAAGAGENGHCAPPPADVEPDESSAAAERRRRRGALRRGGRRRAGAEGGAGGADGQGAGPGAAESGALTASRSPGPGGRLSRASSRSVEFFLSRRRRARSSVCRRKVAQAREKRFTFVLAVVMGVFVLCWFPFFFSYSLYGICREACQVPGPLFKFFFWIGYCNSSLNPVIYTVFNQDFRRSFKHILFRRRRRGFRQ
Description: Displacement of [3H]clonidine from human Alpha-2C receptor by liquid scintillation counting. For orientation: Displacement assays read how much labelled ligand stays bound in the presence of the test substance.

A further assay has as its target D(3) dopamine receptor (Homo sapiens, UniProt P35462). As to the kind of experiment: Displacement of [3H]N-methylspiperone from human dopamine D3 receptor by liquid scintillation counting.
The target of the next assay is D(2) dopamine receptor (Homo sapiens, UniProt P14416). Description: Displacement of [3H]N-methylspiperone from human dopamine D2 receptor by liquid scintillation counting.
Assay [2] addresses 5-hydroxytryptamine receptor 2A (Homo sapiens, UniProt P28223). As to the kind of experiment: Displacement of [3H]DOI from human 5HT2A receptor after 1 hr by liquid scintillation counting.
Assay [3] deals with T2, 5-hydroxytryptamine receptor 1A (Homo sapiens, UniProt P08908).
T2 sequence (P08908 whole entry): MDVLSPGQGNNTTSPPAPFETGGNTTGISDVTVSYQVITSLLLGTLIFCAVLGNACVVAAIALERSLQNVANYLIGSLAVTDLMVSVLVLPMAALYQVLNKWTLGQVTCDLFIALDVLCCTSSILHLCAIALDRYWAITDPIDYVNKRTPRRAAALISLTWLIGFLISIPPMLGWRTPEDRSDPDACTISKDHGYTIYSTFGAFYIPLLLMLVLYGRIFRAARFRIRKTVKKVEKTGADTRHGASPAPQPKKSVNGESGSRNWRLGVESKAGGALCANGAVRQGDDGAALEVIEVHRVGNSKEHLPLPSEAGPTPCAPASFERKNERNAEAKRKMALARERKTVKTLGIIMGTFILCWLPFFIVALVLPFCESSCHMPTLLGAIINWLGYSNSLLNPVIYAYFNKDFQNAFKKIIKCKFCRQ
Description: Displacement of [3H]8-OH-DPAT from human 5HT1A receptor by liquid scintillation counting.

For assay [4], the target named is T3, 5-hydroxytryptamine receptor 2C (Rattus norvegicus, UniProt P08909).
T3 sequence (P08909 whole entry): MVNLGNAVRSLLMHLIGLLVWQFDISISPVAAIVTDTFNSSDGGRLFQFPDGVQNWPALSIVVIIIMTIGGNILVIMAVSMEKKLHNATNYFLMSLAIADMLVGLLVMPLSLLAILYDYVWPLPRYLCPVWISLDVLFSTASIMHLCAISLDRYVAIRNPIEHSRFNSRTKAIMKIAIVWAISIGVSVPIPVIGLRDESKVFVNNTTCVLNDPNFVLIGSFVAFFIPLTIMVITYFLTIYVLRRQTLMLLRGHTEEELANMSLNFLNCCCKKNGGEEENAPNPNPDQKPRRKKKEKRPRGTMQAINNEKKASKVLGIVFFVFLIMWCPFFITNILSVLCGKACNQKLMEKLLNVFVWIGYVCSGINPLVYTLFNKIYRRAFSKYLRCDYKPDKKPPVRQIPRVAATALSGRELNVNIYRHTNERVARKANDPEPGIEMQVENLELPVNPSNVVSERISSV
As to the kind of experiment: Displacement of [3H]mesulergine from rat 5HT2C receptor by liquid scintillation counting.

The target in the next assay is T4, D(4) dopamine receptor (Rattus norvegicus, UniProt P30729).
T4 sequence (P30729 whole entry): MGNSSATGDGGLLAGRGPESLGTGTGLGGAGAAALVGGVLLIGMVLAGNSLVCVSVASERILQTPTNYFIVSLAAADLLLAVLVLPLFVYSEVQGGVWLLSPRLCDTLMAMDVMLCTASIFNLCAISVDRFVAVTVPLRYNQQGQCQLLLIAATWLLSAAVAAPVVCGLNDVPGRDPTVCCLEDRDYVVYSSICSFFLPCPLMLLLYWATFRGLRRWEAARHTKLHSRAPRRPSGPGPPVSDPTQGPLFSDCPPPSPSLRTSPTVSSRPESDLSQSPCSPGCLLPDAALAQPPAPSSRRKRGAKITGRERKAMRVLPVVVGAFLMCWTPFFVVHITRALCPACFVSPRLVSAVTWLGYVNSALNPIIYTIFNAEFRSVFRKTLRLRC
Description: Displacement of [3H]N-methylspiperone from rat dopamine D4 receptor by liquid scintillation counting.

Another assay deals with Histamine H1 receptor (Homo sapiens, UniProt P35367).

Consider 17 compounds from ChEMBL document CHEMBL1938349 (Bioorg Med Chem, 2012).

Sequence of D(2) dopamine receptor (P14416 whole entry): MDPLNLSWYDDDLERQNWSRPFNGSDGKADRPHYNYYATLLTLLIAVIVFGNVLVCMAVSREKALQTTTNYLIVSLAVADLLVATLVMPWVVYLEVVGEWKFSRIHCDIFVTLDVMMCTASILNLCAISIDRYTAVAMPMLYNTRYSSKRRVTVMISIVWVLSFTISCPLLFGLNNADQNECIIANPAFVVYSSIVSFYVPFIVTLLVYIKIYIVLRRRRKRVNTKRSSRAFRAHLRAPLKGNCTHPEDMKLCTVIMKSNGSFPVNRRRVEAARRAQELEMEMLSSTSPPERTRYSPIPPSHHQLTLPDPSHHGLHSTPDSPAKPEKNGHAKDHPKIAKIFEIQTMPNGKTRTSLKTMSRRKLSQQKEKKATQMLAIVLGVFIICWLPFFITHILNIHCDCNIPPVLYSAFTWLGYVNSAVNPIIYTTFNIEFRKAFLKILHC
Sequence of 5-hydroxytryptamine receptor 2A (P28223 whole entry): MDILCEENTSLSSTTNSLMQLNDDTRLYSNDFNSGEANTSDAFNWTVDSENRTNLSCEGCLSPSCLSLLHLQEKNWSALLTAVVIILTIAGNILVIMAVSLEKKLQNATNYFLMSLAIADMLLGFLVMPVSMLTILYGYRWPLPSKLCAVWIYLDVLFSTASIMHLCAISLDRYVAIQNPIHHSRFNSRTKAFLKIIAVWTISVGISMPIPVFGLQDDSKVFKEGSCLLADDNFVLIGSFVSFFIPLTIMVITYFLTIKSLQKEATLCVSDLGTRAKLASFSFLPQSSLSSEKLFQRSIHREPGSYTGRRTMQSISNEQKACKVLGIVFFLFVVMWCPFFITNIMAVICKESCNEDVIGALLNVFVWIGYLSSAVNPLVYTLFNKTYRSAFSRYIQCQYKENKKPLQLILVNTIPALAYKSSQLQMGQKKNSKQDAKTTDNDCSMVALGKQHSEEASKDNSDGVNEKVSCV
Sequence of D(3) dopamine receptor (P35462 whole entry): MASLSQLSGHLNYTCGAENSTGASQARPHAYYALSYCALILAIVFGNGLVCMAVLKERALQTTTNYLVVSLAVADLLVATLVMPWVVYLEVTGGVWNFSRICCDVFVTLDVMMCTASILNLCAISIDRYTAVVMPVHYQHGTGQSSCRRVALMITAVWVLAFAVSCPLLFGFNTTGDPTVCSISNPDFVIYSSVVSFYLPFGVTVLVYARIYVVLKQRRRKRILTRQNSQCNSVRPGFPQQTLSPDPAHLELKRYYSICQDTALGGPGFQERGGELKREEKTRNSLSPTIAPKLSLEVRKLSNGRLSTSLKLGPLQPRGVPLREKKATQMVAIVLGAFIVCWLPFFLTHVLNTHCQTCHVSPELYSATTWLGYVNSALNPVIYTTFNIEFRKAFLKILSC
Sequence of Histamine H1 receptor (P35367 whole entry): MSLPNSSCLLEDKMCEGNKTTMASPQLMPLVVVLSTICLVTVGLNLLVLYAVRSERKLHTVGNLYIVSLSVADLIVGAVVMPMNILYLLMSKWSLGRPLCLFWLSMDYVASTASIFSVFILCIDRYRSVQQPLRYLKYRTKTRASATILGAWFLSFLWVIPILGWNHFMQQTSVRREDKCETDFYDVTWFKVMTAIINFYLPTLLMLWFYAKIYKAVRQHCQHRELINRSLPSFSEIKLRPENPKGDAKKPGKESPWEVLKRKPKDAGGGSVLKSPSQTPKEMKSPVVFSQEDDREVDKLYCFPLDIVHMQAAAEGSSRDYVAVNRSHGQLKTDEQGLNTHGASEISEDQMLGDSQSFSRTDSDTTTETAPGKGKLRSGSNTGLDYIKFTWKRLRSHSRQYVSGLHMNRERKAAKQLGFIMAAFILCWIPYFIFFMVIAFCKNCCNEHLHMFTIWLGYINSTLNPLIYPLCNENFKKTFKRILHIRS
Description for Histamine H1 receptor: Displacement of [3H]pyrilamine from human H1 receptor by liquid scintillation counting

A word on the Ki: it is a measure of affinity in units of concentration, obtained from inhibition or displacement. Low values mean higher affinity, high ones lower affinity. `O=C(CCCN1CCN(c2ncccn2)CC1)c1ccc(F)cc1`: in assay [1], the Ki came to 80 nM.
As to `OC1(c2ccc(Cl)cc2)CCN(CCCOc2ccc(F)cc2)CC1`, the Ki at D(3) dopamine receptor is 182 nM; on D(2) dopamine receptor it was 5.3 nM.
For `Fc1ccc(SCCCN2CCC(c3ccc(Cl)cc3)CC2)cc1`, the Ki in assay [2] was 112 nM; in assay [3], 454 nM; at D(3) dopamine receptor, 130 nM; in assay [4] it was > 10 µM; on D(4) dopamine receptor, 39 nM; at D(2) dopamine receptor, 185 nM.
Turning to `Fc1ccc(OCCCN2CCC(c3ccc(Cl)cc3)CC2)cc1`, the Ki in assay [2] is 121 nM; in assay [3] it was 169 nM; on D(3) dopamine receptor it was 696 nM; in assay [4], > 10 µM; at D(4) dopamine receptor, 9.5 nM; at D(2) dopamine receptor, 41 nM.
As for `[O-][S+](CCCN1CCC(c2ccc(Cl)cc2)CC1)c1ccc(F)cc1` (stereo not drawn), the Ki is 222 nM in assay [2]; 613 nM in assay [3]; 243 nM at D(3) dopamine receptor; > 10 µM in assay [4]; 35 nM on D(4) dopamine receptor; 998 nM on D(2) dopamine receptor.
Take `Fc1ccc(CCCCN2CCN(c3ccc(Cl)cc3)CC2)cc1`: the inhibition constant (Ki) in assay [2] was found to be 81 nM; in assay [3], 112 nM; at D(3) dopamine receptor, 261 nM; at D(4) dopamine receptor, 7.8 nM.
Turning to `Fc1ccc(SCCCN2CCN(c3ccc(Cl)cc3)CC2)cc1`, the Ki in assay [2] worked out at 53 nM; in assay [3], 166 nM; at D(3) dopamine receptor, 422 nM; at D(4) dopamine receptor it was 8.7 nM; at D(2) dopamine receptor, 211 nM.
As to `Fc1ccc(SCCCN2CCN(c3ccc(C(F)(F)F)cc3)CC2)cc1`, the inhibitory constant (Ki) stood at 1130 nM in assay [2]; 1080 nM in assay [3]; 544 nM on D(3) dopamine receptor; 89 nM on D(4) dopamine receptor; 4750 nM on D(2) dopamine receptor.
Take `Fc1ccc(OCCCN2CCN(c3ccc(Cl)cc3)CC2)cc1`: the Ki is 60 nM in assay [2]; 80 nM in assay [3]; 885 nM at D(3) dopamine receptor; 6.9 nM on D(4) dopamine receptor; 390 nM on D(2) dopamine receptor.
For `Fc1ccc(OCCCN2CCN(c3ccccc3)CC2)cc1`, the inhibition constant (Ki) in assay [2] stood at 57.6 nM; in assay [3] it was 24 nM; at D(3) dopamine receptor, 207 nM; on D(4) dopamine receptor it was 7.4 nM; at Histamine H1 receptor, 62.9 nM; at D(2) dopamine receptor, 37 nM.
With `Clc1ccc(N2CCN(CCCOc3ccccc3)CC2)cc1`, the inhibition constant Ki in assay [3] turned out to be 154 nM; at D(3) dopamine receptor, 726 nM; on D(4) dopamine receptor, 5.6 nM; on D(2) dopamine receptor it was 447 nM.
Turning to `c1ccc(OCCCN2CCN(c3ccccc3)CC2)cc1`, the Ki amounted to 46 nM in assay [2]; 25 nM in assay [3]; 79.3 nM on D(3) dopamine receptor; 4.5 nM on D(4) dopamine receptor; 67.9 nM on Histamine H1 receptor; 119 nM at D(2) dopamine receptor.
On to `Fc1ccc(SCCCN2CCN(c3ncccn3)CC2)cc1`, for which the Ki was 27 nM in assay [2]; 93.1 nM in assay [3]; 68 nM on D(3) dopamine receptor; 8.83 µM in assay [4]; 21 nM at D(4) dopamine receptor; 424 nM at D(2) dopamine receptor.
In the case of `Fc1ccc(OCCCN2CCN(c3ncccn3)CC2)cc1`, the Ki is 23 nM in assay [2]; 23 nM in assay [3]; 778 nM on D(3) dopamine receptor; > 10 µM in assay [4]; 4.2 nM at D(4) dopamine receptor; 636 nM on D(2) dopamine receptor.
Take `Fc1ccc(CCCCN2CCN(c3ccccn3)CC2)cc1`: the Ki was 167 nM at Histamine H1 receptor and 308 nM in assay [1].
Take `Fc1ccc(SCCCN2CCN(c3ccccn3)CC2)cc1`: the Ki at Histamine H1 receptor is 212 nM; in assay [1] it was 45.1 nM.
At Histamine H1 receptor, `Fc1ccc(OCCCN2CCN(c3ccccn3)CC2)cc1` displayed a Ki of 262 nM.
